Source: patent publication US8901276B2, “Peptide reagents and methods for detection of colon dysplasia” (The Regents of the University of Michigan, priority 2010, dated 2014)
Where no end group is shown, it is not given here. The star is where a group is joined. 5‑TAMRA = CN(C)c1ccc2c(-c3ccc(C(=O)*)cc3C(=O)[O-])c3ccc(N(C)C)cc3[o+]c2c1; DEAC = CCN(CC)c1ccc2cc(C(=O)*)c(=O)oc2c1; Cy5.5 = Cy5.5 fluorescent dye; Ahx = NCCCCCC(=O)O

How the values were obtained:
colonic adenomas [1] = assay: In vivo imaging with non-scanning endoscope, FITC-labeled peptides; design: species or system CPC; Apc mice; conditions: Non-scanning Endoscopy Results; FITC label; mean ± SD
From the text: Specific binding of the candidate peptides to primary dysplastic colonic epithelial cells were validated on flow cytometry ex vivo and with small animal endoscopy in vivo using FITC-labeled peptides using a non-scanning white light endoscope.

[2] = tested on: human colonic mucosa sections (normal, dysplasia, adenocarcinoma); assay: Cy5.5-labeled peptide staining of human colonic mucosa sections; conditions: for sections of adenocarcinoma stained / sections of dysplasia stained: stained/total sections
Procedure: All specimens were obtained with approval from the University of Michigan Institutional Review Board (IRB). Freshly resected specimens of human colonic mucosa were frozen in OCT and sectioned with 10 μm thickness using Microm-HM-550 Microtome (EquipNet, Inc. Canton, Mass.). The sections were then air dried, washed with PBS 1×, and incubated with the Cy5.5-labeled peptides at a concentration of 10 μM for 15 min at RT. The sections were washed 3× for 1 min in PBS and fixed with 4% paraformaldehyde for 10 min. After fixation, the sections were washed again (1×) and mounted with ProLong Gold reagent with DAPI (Invitrogen, Carlsbad, Calif.). The sections were imaged under a confocal microscope (Leica TCS SP5 Microsystems, Bannockburn, Ill.). Adjacent sections were sent for routine histology. The average intensity from the entire field-of-view of each image was calculated using Matlab (Mathworks, Natick, Mass.).
For the ex-vivo peptide immunohistochemistry, the nonparametric Kruskal-Wallis test was used to determine if observed differences are statistically significant among all three pathological classifications. The nonparametric Mann-Whitney test was used for comparisons between two independent samples, and differences with p<0.05 were considered significant.

[3] = tested on: colonic dysplasia (adenomas); assay: In vivo NIR fluorescence endoscopic imaging; design: species or system CPC;Apc mice; conditions: for fluorescence signal on in vivo NIR image: 100 μM topical, 5 min; for average T/B ratio: adenoma/adjacent normal ratio as defined
From the text: Anesthesia was induced and maintained with inhaled isofluorane mixed with oxygen via a nose cone at a dose of 4% and 2% at a flow rate 0.5 liter/min, respectively. Prior to peptide administration, the colon of each mouse was cleaned with a tap water lavage to remove debris. The conventional white light endoscope was used first with a color camera to identify the presence of adenomas. The colon was then rinsed with water until all of the visible mucous was removed. The Cy5.5-labeled peptides were then delivered at a concentration of 100 μM in 1×PBS containing 2.5% DMSO […] through the instrument channel. The peptides were allowed to incubate for 5 minutes, and then the colon was cleansed 3 times with a tap water to remove any unbound peptide. Prior to imaging, the colon was inspected for residual peptide solution, and when clean, the colon was insufflated with air for imaging. Fluorescence images were collected using Axiovision 4.8.1 software.
Images collected during endoscopy were recorded as .zvi files and converted into .tiff images using Axiovision Lite software. Consecutive white light and fluorescence images for each adenoma were analyzed. Regions of interest (ROI) around the adenoma and adjacent normal-appearing mucosa were defined on the color and fluorescence images using Labview®. The white light image was utilized to draw an ROI around the adenoma or adjacent normal appearing colonic mucosa which was then superimposed onto the fluorescent image. Mean gray scale values were calculated for each ROI, and an adenoma/normal colon, or a T/B ratio, value was then calculated for each adenoma. The mean fluorescence intensities were calculated from each ROI to determine the ratio of the average intensities for the adenomas to that from adjacent normal-appearing mucosa, or T/B ratio.
Two-tailed independent samples t-tests (significance level at α=0.05) were used to determine statistical significance between the T/B ratio for the QPI-Cy5.5 and YTT-Cy5.5 peptides binding to colonic adenomas in the CPC;Apc mice. All statistical computations were processed either using statistical software (SPSS15.0.; SPSS, Chicago, Ill.) or Minitab (Minitab Inc. State College, Pa.).

colonic adenomas [4] = assay: In vivo imaging with multi-spectral scanning fiber endoscope; design: species or system CPC; Apc mice; conditions: 100 μM topical, 5 min; for Average T/B: Multi-Spectral Scanning Fiber Endoscopy Results, mean ± SD
From the text: A scanning fiber endoscope system was adapted for fluorescence detection in three channels (RGB) using excitation at 440 (NDHB510APA, Nichia, Tokyo, Japan), 532 (FTEC532-V10TA0, Blue Sky Research, Milpitas, Calif.) and 635 (FMXL635-017TA0B, Blue Sky Research) nm using an RGB coupler (OZ Optics, Ottawa, Canada). The three laser sources are delivered simultaneously into the scanning fiber, and focused to the same point on the illumination plane using a custom lens assembly, as shown in the schematic in FIG. 2A. The laser power coming out of the distal tip of the endoscope is <2 mW for each channel, a level consistent with a non-significant risk (NSR) determination by the U.S. Food and Drug Administration (FDA, 21 CFR 812) for future human clinical studies. The amplitude of the spiral scanner was reduced to achieve a divergence angle of 70 deg (max 100 deg) to minimize noise in the periphery of the image. Fluorescence is collected by a ring of 12 step-index plastic optical fibers (POF) with numerical aperture (N.A.) of 0.63 and outer diameter of 250 μm (Toray Industries Inc, Tokyo, Japan).
The CPC;Apc mice were first imaged with white light using a non-scanning endoscope (Karl Storz Veterinary Endoscopy, Goleta, Calif.) to assess for the presence of colonic adenomas that have a size between ˜0.5 to 4 mm in diameter. Any adenomas were rinsed of debris including stool and mucous, by delivering tap water through a 3 Fr instrument channel. Then, the fluorescent-labeled peptides were delivered topically at a concentration of 100 μM in 1×PBS in a volume of 1 mL to the distal 4 cm of the colon and rectum. The peptides were incubated for 5 minutes and then the unbound peptides were rinsed away with tap water 3 times. The colon was inspected for any residual peptide, and when clean, the colon was insufflated with air and imaged with the multi-spectral scanning fiber endoscope.
Videos collected during endoscopy were exported as avi video files and converted into sequential png images using Apple QuickTime. White light and fluorescence images for each adenoma were analyzed in NIH Image J. The white light image was utilized to draw a region of interest (ROI) around the adenoma or adjacent normal appearing colonic mucosa which was then superimposed onto the fluorescence image. The mean fluorescence intensities were calculated for each ROI, and a target/background (T/B) ratio was calculated for each colonic adenoma and compared to the surrounding normal appearing mucosa.

HT29 cells = assay: Competitive inhibition assay (bound phage counts); type: cell-based, human
Procedure: Bound phage counts were performed to observe the competitive inhibition effect of the synthetic candidate heptapeptide with its representative phage counterpart in triplicate. HT29 cells (5×10^6) were detached with enzyme free cell dissociation buffer and blocked with 1% BSA containing PBS for 30 min at 4° C. The cells were washed and incubated with phage (2×10^11) for 15 min. Then, the cells were washed with PBS and immediately incubated with different concentrations of unlabeled peptide ranging from 10 to 200 μM for an additional 15 min. Cells were washed 3× and the bound phages were recovered as described above in bound phage counts. The bound phages were then tittered and counted, and the relative inhibition rate was calculated. The inhibition activity of no-insert WT phage by synthetic candidate peptide and phage with unrelated synthetic control peptide were used as negative controls.

ALTPTPP-FITC: ALTPTPP labeled with 5′-FITC at the C-terminus via GGGSK linker (not fully specified; GGGSK linker, FITC)
Average T/B (colonic adenomas [1]): 1.19 ± 0.18

QPI-Cy5.5: QPIHPNNM conjugated with Cy5.5 on the N-terminus via an amino-hexanoic acid linker ({Cy5.5-Ahx}-QPIHPNNM; not fully specified)
staining of dysplasia and adenocarcinoma ([2]; 10 μM, 15 min, RT): consistently stained | staining of normal colonic mucosa ([2]; 10 μM, 15 min, RT): did not stain any of the 7 sections | staining of normal colonic mucosa ([2]; 10 μM, 15 min, RT, listed as QPI-CY5.5): no binding | T/B ratio QPI-Cy5.5 in comparison to YTT-Cy5.5 ([2]; adenocarcinoma): 2.9 | intensity ratio relative to normal colonic mucosa ([2]; adenocarcinoma): 6.5 | mean NIR fluorescence intensity ([2]; adenocarcinoma): 9.8±2.4 AU | T/B ratio QPI-Cy5.5 in comparison to YTT-Cy5.5 ([2]; dysplasia): 26.7 | intensity ratio relative to normal colonic mucosa ([2]; dysplasia): 7.1 | mean NIR fluorescence intensity ([2]; dysplasia): 10.7±3.3 AU | mean NIR fluorescence intensity ([2]; normal): 1.5±1.0 AU | T/B ratio QPI-Cy5.5 in comparison to YTT-Cy5.5 ([2]; normal mucosa): 1.8 | sections of adenocarcinoma stained [2]: 8/10 | sections of dysplasia stained [2]: 6/8 | fluorescence signal on in vivo NIR image [3]: significant contrast enhancement | average T/B ratio [3]: 3.42±1.30

GGGAGGG-FITC: FITC-labeled GGGAGGG control peptide; probably the same as FITC-Control peptide 2 (also: FITC label, site not given here) [reference compound]
Average T/B (colonic adenomas [1]): 1.05 ± 0.05

LTTHYKL-CF633: LTTHYKL labeled with CF633 (also: CF633 label, place not given here)
binding to colonic dysplasia/adenomas on fluorescence images (colonic adenomas [4]): more subtle

ATTVPAS-FITC: ATTVPAS labeled with 5′-FITC at the C-terminus via GGGSK linker (not fully specified; GGGSK linker, FITC)
Average T/B (colonic adenomas [1]): 1.06 ± 0.33

YTTNKH [YTT-Cy5.5, reference compound]
staining of any specimen (normal, dysplasia, adenocarcinoma) ([2]; 10 μM, 15 min, RT): did not stain any of the specimens | staining of normal colonic mucosa ([2]; 10 μM, 15 min, RT): did not stain | sections of adenocarcinoma stained [2]: 5/10 | sections of dysplasia stained [2]: did not stain | fluorescence signal on in vivo NIR image [3]: negligible signal | average T/B ratio [3]: 1.88±0.38

GGGAGGGAGGGK (DEAC)-NH2 (GGGAGGGAGGGK(DEAC)-NH2; N-terminus assumed; SMILES CCN(CC)c1ccc2cc(C(=O)NCCCC[C@H](NC(=O)CNC(=O)CNC(=O)CNC(=O)[C@H](C)NC(=O)CNC(=O)CNC(=O)CNC(=O)[C@H](C)NC(=O)CNC(=O)CNC(=O)CN)C(N)=O)c(=O)oc2c1) [GGGAGGG-DEAC, reference compound]
binding to colonic dysplasia/adenomas on fluorescence images (colonic adenomas [4]): minimal signal | Average T/B (colonic adenomas [4]): 1.19±0.09

AKPGYLS-FITC: AKPGYLS labeled with 5′-FITC at the C-terminus via GGGSK linker (not fully specified; GGGSK linker, FITC)
Average T/B (colonic adenomas [1]): 1.53 ± 0.48

KCCFPAQ [Peptide 2, heptapeptide from M13 phage display]
bound KCCFPAQ phage count (HT29 cells; HT29, 200 μM unlabeled KCCFPAQ peptide): 3.8×10^4±6.6×10^3 | inhibition of WT phage binding (HT29 cells; addition of KCCFPAQ peptide): did not inhibit | rate of inhibition at saturation (HT29 cells; peptide concentration above ˜75 μM): > 98% | inhibition of KCCFPAQ phage binding to HT29 cells (HT29 cells; up to 200 μM unlabeled peptide): in a dose-dependent manner

ANYPREP-FITC: ANYPREP labeled with 5′-FITC at the C-terminus via GGGSK linker (not fully specified; GGGSK linker, FITC)
Average T/B (colonic adenomas [1]): 0.94 ± 0.11

NLVNLLP-FITC: NLVNLLP labeled with 5′-FITC at the C-terminus via GGGSK linker (not fully specified; GGGSK linker, FITC)
Average T/B (colonic adenomas [1]): 0.99 ± 0.06

LTTHYKL-FITC: LTTHYKL labeled with 5′-FITC at the C-terminus via GGGSK linker (not fully specified; GGGSK linker, FITC)
Average T/B (colonic adenomas [1]): 1.50 ± 0.73

GGGAGGGAGGGK (5-TAMRA)-NH2 (GGGAGGGAGGGK(5‑TAMRA)-NH2; N-terminus assumed; SMILES C[C@H](NC(=O)CNC(=O)CNC(=O)CN)C(=O)NCC(=O)NCC(=O)NCC(=O)N[C@@H](C)C(=O)NCC(=O)NCC(=O)NCC(=O)N[C@@H](CCCCNC(=O)c1ccc(-c2c3ccc(N(C)C)cc3[o+]c3cc(N(C)C)ccc23)c(C(=O)[O-])c1)C(N)=O) [GGGAGGG-TAMRA, reference compound]
binding to colonic dysplasia/adenomas on fluorescence images (colonic adenomas [4]): minimal signal | Average T/B (colonic adenomas [4]): 1.32±0.10
